Results as given in PubChem BioAssay AID504901 (Southern Research Specialized Biocontainment Screening …, 2011).
Values joined by “and” are separate entries in the source; they are usually repeats but may differ in a detail not shown here. Identical values can stand only once. Active and inactive are the calls of the source. The rule behind the calls is not given here.

Columns and labels:
[1] = Confirmatory growth inhibition assay, Mycobacterium tuberculosis H37Rv, absence of glycerol (AID 504901); conditions: Mycobacterium tuberculosis H37Rv growth inhibition, no glycerol; at 50 µM (top of the series)
[2] = test system: Mycobacterium tuberculosis H37Rv growth inhibition, no glycerol; test: as above; conditions: for IC50: measured here: IC50 of growth inhibition

Row | SMILES | inhibition [1] | IC90 [2] | IC50 [2]
1 | Cc1cc(=O)[nH]c(SCC(=O)NC2CCCCC2)n1 | -0.58% (inactive) |  | 
2 | CN(C)C(=O)CSc1nc2ccccc2c(=O)[nH]1 | -6.71% (inactive) |  | 
3 | Cc1ccc(C(=O)N/N=C(/CC(=O)c2cccs2)C(F)(F)F)cc1 |  | 3580 nM | 2560 nM
4 | CC1CCN(C(=O)CSc2nc3ccccc3c(=O)[nH]2)CC1 | -4.55% (inactive) |  | 
5 | CCSc1nc(C)c(C)c(=O)[nH]1 | -2.72% (inactive) |  | 
6 | CN(C(=O)CSc1nc2ccccc2c(=O)[nH]1)C1CCCCC1 | -7.16% (inactive) |  | 
7 | COC(=O)c1ccc(CNc2c(N3CCCC3)c(=O)c2=O)cc1 | -8.74% (inactive) |  | 
8 | CC(C)CCNC(=O)CSc1nc2ccccc2c(=O)[nH]1 |  | 500 nM | < 140 nM
9 | CC(C)N=c1cc2n(-c3ccc(Cl)cc3)c3ccccc3nc-2cc1Nc1ccc(Cl)cc1 |  |  | > 140 nM
10 | COc1cccc(NC(=O)CSc2nc3ccccc3c(=O)[nH]2)c1 | -14.5% (inactive) |  | 
11 | O=C(CSc1ccccn1)NC1CCCCC1 | 3.21% (inactive) |  | 
12 | O=C(CSc1nc2ccccc2c(=O)[nH]1)N1CCOCC1 | 0.57% (inactive) |  | 
13 | CCSc1nc2ccccc2c(=O)[nH]1 | 1.1% (inactive) |  | 
14 | Nc1cc(=O)[nH]c(SCC(=O)NC2CCCCC2)n1 | -6.39% (inactive) |  | 
15 | Cc1nc(SCC(N)=O)[nH]c(=O)c1C | -0.93% (inactive) |  | 
16 | Cc1cc(C)n2nc(N)c(N=Nc3ccccc3)c2n1 |  | 5960 nM | 4550 nM
17 | O=C(CSc1nc2ccccc2c(=O)[nH]1)NC1CCCCC1 |  | 510 nM and 80 nM | 
18 | CC(C)CNC(=O)CSc1nc2ccccc2c(=O)[nH]1 |  | 790 nM | 410 nM
19 | O=C(CSc1nc2ccccc2c(=O)[nH]1)NC1CCCC1 |  | 500 nM | 330 nM
20 | Cc1cnc(SCC(=O)NC2CCCCC2)[nH]c1=O | -9.54% (inactive) |  | 
21 | Cc1[nH]c2ccccc2c1C(=O)COC(=O)c1ccc([N+](=O)[O-])s1 |  | 27600 nM | 26400 nM
22 | COc1ccc(NC(=O)CSc2nc3ccccc3c(=O)[nH]2)cc1 | -9.6% (inactive) |  | 
23 | CN[C@@H]1[C@H](O[C@H]2[C@H](O[C@H]3[C@H](O)[C@@H](O)[C@H](N=C(N)N)[C@@H](O)[C@@H]3N=C(N)N)O[C@@H](C)[C@]2(O)C=O)O[C@@H](CO)[C@H](O)[C@H]1O |  | 220 nM | 150 nM

Row | SMILES | inhibition [1] | IC90 [2] | IC50 [2]
24 | CO[C@H]1/C=C/O[C@@]2(C)Oc3c(C)c(O)c4c(O)c(c(C=NN5CCN(C)CC5)c(O)c4c3C2=O)NC(=O)/C(C)=C\C=C\[C@H](C)[C@H](O)[C@@H](C)[C@@H](O)[C@@H](C)[C@H](OC(C)=O)[C@@H]1C |  |  | 10 nM
25 | O=C(CSc1nc2c(c(=O)[nH]1)CCC2)NC1CCCCC1 |  | < 110 nM | < 70 nM
26 | Cc1nc(SCC(=O)N(C)c2ccccc2)[nH]c(=O)c1C | -3.18% (inactive) |  | 
27 | COC(=O)C(Nc1nc(SCC(=O)NC2CCCCC2)nc2ccccc12)c1ccccc1 (stereo not given) | -3.62% (inactive) |  | 
28 | CCCc1cc(C(N)=S)ccn1 |  | 50000 nM | 8840 nM
29 | CC(C)NC(=O)CSc1nc2ccccc2c(=O)[nH]1 |  | 14600 nM | 9570 nM
30 | Cc1cccc(-c2oc3ccc(-c4ccc5c(c4)OCO5)cc3c2C#Cc2cncn2C)c1 |  | 2960 nM | 2360 nM
31 | O=c1[nH]c(=S)[nH]c2ccccc12 | -9.52% (inactive) |  | 
32 | CC1CCN(C(=O)C2CCN(c3nnc(-n4cccc4)s3)CC2)CC1 |  | 6400 nM | 3290 nM
33 | CCOC1OC(=O)C(Cl)=C1Nc1ccccc1C (stereo not given) |  | 5870 nM | 3110 nM
34 | COC(=O)C(C)Oc1ccc(Cc2ncc(C(F)(F)F)cc2Cl)cc1 (stereo not given) |  | 5610 nM | 3950 nM
35 | O=c1[nH]c(SCc2ccccc2Cl)nc2c1CCCC2 | -5.59% (inactive) |  | 
36 | O=C(CSc1nccc(=O)[nH]1)NC1CCCCC1 | -0.32% (inactive) |  | 
37 | Cn1c(SCC(=O)NC2CCCCC2)nc2ccccc2c1=O | -9.98% (inactive) |  | 
38 | CCOc1ccc(-c2cc(C)[n+](CCc3ccc(OC)c(OC)c3)c(-c3ccc(OCC)cc3)c2)cc1 |  | 1120 nM | 710 nM
39 | CC[N+](C)(CC)CCCCOc1ccc2c(c1)C(=O)c1cc(OCCCC[N+](C)(CC)CC)ccc1-2 |  |  | 1900 nM
40 | O=C(CSc1nc2c(c(=O)[nH]1)CCCC2)NC1CCCCC1 |  | 160 nM | 90 nM
41 | Cc1nc(SCC(=O)NC2CCCCC2)[nH]c(=O)c1C |  | 3780 nM | 650 nM
42 | COc1c(N2CCNC(C)C2)c(F)cc2c(=O)c(C(=O)O)cn(C3CC3)c12 (stereo not given) |  |  | 140 nM
43 | CCOC(=O)CSc1nc(C)c(C)c(=O)[nH]1 | -7.41% (inactive) |  | 
44 | Cc1[nH]c(=S)[nH]c(=O)c1C | 3.12% (inactive) |  | 
45 | Cc1cccc(/C=C/C(=O)c2ccc([N+](=O)[O-])o2)c1 |  | 2060 nM | 1360 nM
46 | NC[C@H]1O[C@H](O[C@H]2[C@H](O)[C@@H](O[C@H]3O[C@H](CO)[C@@H](O)[C@H](N)[C@H]3O)[C@H](N)C[C@@H]2N)[C@H](O)[C@@H](O)[C@@H]1O |  | 2470 nM | 2010 nM

Row | SMILES | inhibition [1] | IC90 [2] | IC50 [2]
47 | O=C(CSc1nc2ccccc2c(=O)[nH]1)NCc1ccc(Cl)cc1 |  | 1470 nM | 1030 nM
48 | Cc1nc(SCC(=O)NCCC(C)C)[nH]c(=O)c1C |  | 12800 nM | 8990 nM
49 | Cc1cc(Br)ccc1NC(=O)c1cnc(N2CCN(c3ccccn3)CC2)c2ccccc12 |  | 50000 nM | 3420 nM
50 | Cc1c[nH]c(=S)[nH]c1=O | -2.94% (inactive) |  | 
51 | O=C(CSc1ncccn1)NC1CCCCC1 | -1.46% (inactive) |  | 
52 | COc1cccc(NC(=O)CSc2nc3c(c(=O)[nH]2)CCC3)c1 | 4.58% (inactive) |  | 
53 | Cc1ccc(NC(=O)COC(=O)CCc2c[nH]c3ccccc23)cc1[N+](=O)[O-] |  | 7750 nM | 2730 nM
54 | CN1CCC(NC(=O)CSc2nc3ccccc3c(=O)[nH]2)CC1 | -11.8% (inactive) |  | 
55 | CC(Sc1nc2ccccc2c(=O)[nH]1)C(=O)NC1CCCCC1 (stereo not given) | -6.09% (inactive) |  | 
56 | CCC(Sc1nc2ccccc2c(=O)[nH]1)C(=O)NC1CCCCC1 (stereo not given) | -7.27% (inactive) |  | 
57 | CCC(Sc1nc2c(c(=O)[nH]1)CCC2)C(=O)Nc1cccc(OC)c1 (stereo not given) | 3.19% (inactive) |  | 
58 | CNC(=O)CSc1nc2ccccc2c(=O)[nH]1 | 11.7% (inactive) |  | 
59 | NC(=O)CSc1nc2ccccc2c(=O)[nH]1 | -10.9% (inactive) |  | 
60 | Cc1ccc(NC(=O)CSc2nc3ccccc3c(=O)[nH]2)cc1Cl | -3.41% (inactive) |  | 
61 | Cc1nc(SCc2ccccc2Cl)[nH]c(=O)c1C | -13.7% (inactive) |  | 
62 | Cc1nc(SCC(=O)NC2CCCC2)[nH]c(=O)c1C |  | 13800 nM | 9690 nM
63 | Nc1c(C(=O)NC2CCCCC2)nsc1C(=O)OCC(=O)NC1CCCCC1 |  | 6830 nM | 4100 nM
64 | NC(=O)c1cnccn1 | 1.71% (inactive) |  | 
65 | Cc1cc(=O)[nH]c(=S)[nH]1 | -7.95% (inactive) |  | 
66 | CCC(Sc1nc2ccccc2c(=O)[nH]1)C(=O)Nc1cccc(OC)c1 (stereo not given) | -3.07% (inactive) |  | 
67 | CC(C)CCNC(=O)CSc1nc2c(c(=O)[nH]1)CCC2 |  | 1720 nM | 1400 nM
68 | CCCCNC(=O)CSc1nc2ccccc2c(=O)[nH]1 |  | 1060 nM | 320 nM
